Laboratory results taken from BindingDB's records for doi:10.7270/Q2ZC817P (The Scripps Research Institute Molecular Screening Center, 2007).
Counter-ions that a name gives are not always drawn.

biological target: Sphingosine 1-phosphate receptor 1 (Homo sapiens, UniProt P21453); assay: potentiators of S1P1 agonist response, dose response, cell-based, potentiator mode, 60K MLSMR set (AID 466); conditions: not given
Sequence (P21453 whole entry): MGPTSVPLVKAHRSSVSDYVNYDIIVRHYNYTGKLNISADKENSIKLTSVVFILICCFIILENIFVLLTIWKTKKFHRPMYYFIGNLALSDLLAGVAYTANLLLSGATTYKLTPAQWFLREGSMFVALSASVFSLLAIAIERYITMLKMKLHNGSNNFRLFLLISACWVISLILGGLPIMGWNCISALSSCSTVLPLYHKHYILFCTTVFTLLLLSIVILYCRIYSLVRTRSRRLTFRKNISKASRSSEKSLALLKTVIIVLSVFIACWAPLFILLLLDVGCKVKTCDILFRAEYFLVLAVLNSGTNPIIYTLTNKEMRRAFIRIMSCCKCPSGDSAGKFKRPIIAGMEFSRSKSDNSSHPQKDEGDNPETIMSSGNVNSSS

Going from `O=C(Nc1cccc(C(F)(F)F)c1)C1CCCN1S(=O)(=O)c1cccc2cccnc12` (centres undefined) [1-(8-quinolinylsulfonyl)-N-[3-(trifluoromethyl)phenyl]-2-pyrrolidinecarboxamide] to `O=C(Nc1ccc(N2CCOCC2)c(Cl)c1)c1cccc(F)c1` [MLS000066209], the EC50 falls from 5.41 µM to 0.935 µM (5.8-fold).

First: CC(C)(C)SCCNS(=O)(=O)c1ccccc1 [MLS000112230]
Second: O=S(=O)(C/C(=C/CO)S(=O)(=O)c1ccccc1)c1ccccc1 [(Z)-3,4-bis(benzenesulfonyl)but-2-en-1-ol]
The EC50 of the first is higher: greater than 95 µM for the first, 8.68 µM for the second. The second is the more potent here.

Compared with `Cc1nnc(SCC(=O)N2CCC(c3noc4ccc(F)cc34)CC2)s1` [1-[4-(5-fluoranyl-1,2-benzoxazol-3-yl)piperidin-1-yl]-2-[(5-methyl-1,3,4-thiadiazol-2-yl)sulfanyl]ethanone], `Cc1cccc(N2CCN(C(=O)CSCc3c(C)noc3C)CC2)c1C` [2-[(3,5-dimethyl-1,2-oxazol-4-yl)methylsulfanyl]-1-[4-(2,3-dimethylphenyl)piperazin-1-yl]ethanone] is 1.9-fold lower in EC50: 8.2 µM for the first, 4.41 µM for the second.

First: COc1ccc(-c2noc(-c3cccc(OC)c3OC)n2)cc1OC [5-(2,3-dimethoxyphenyl)-3-(3,4-dimethoxyphenyl)-1,2,4-oxadiazole]
Second: COc1cc(-c2noc(C3CCCN(S(=O)(=O)c4cccc(Cl)c4)C3)n2)cc(OC)c1OC (centres undefined) [1-(3-Chloro-benzenesulfonyl)-3-[3-(3,4,5-trimethoxy-phenyl)-[1,2,4]oxadiazol-5-yl]-piperidine]
The EC50 of the first is 2.5-fold lower: 1.02 µM for the first, 2.6 µM for the second. The first is the more potent here.

`c1ccc(CN2CCN(c3ncnc4c3[nH]c3ccccc34)CC2)cc1` [MLS000078384] and `c1ccc(CNc2ncnc3ccccc23)cc1` [N-benzylquinazolin-4-amine] are within 1.5-fold of each other in EC50: 3.95 µM for the first, 4.27 µM for the second.

Compared with `Cc1nn(-c2nc3ccccc3s2)c(N)c1-c1ccccc1` [1-(1,3-benzothiazol-2-yl)-3-methyl-4-phenyl-1H-pyrazol-5-amine], `O=S1(=O)C=C(Sc2nc3ccccc3s2)c2ccccc21` [2-[(1,1-dioxido-1-benzothien-3-yl)thio]-1,3-benzothiazole] is higher in EC50: 0.385 µM for the first, greater than 10 µM for the second. The first is the more potent here.

First: COc1ccc(S(=O)(=O)N2CCN(c3ccc(C)cc3C)CC2)cc1OC [1-(3,4-dimethoxyphenyl)sulfonyl-4-(2,4-dimethylphenyl)piperazine]
Second: COc1ccc(-n2nc3ccc(NS(C)(=O)=O)cc3n2)cc1Cl [MLS000049114]
The EC50 of the first is 62-fold higher: 7.77 µM for the first, 0.126 µM for the second.

Compared with `CCN(CC)c1ccc2cc(NC(=O)CCC(=O)O)c(=O)oc2c1` [4-[[7-(diethylamino)-2-keto-chromen-3-yl]amino]-4-keto-butyric acid], `CC(=O)Nc1ccccc1OCC(=O)c1cc(C)n(Cc2cccs2)c1C` [MLS000056239] is 37-fold lower in EC50: 8.31 µM for the first, 0.223 µM for the second.

`Cc1cc(C)n2nc(SCC(=O)c3cc(C)n(-c4cc(C)on4)c3C)nc2n1` [1-[2,5-dimethyl-1-(5-methyl-1,2-oxazol-3-yl)pyrrol-3-yl]-2-[(5,7-dimethyl-[1,2,4]triazolo[1,5-a]pyrimidin-2-yl)sulfanyl]ethanone] and `CCn1c(SCC(=O)Nc2nc3ccc(C)cc3s2)nc2c(c1=O)SC(C)C2` (centres undefined) [2-[(3-ethyl-4-keto-6-methyl-6,7-dihydrothieno[3,2-d]pyrimidin-2-yl)thio]-N-(6-methyl-1,3-benzothiazol-2-yl)acetamide] are within 1.5-fold of each other in EC50: 5.63 µM for the first, 7.72 µM for the second.

Compared with `O=S(=O)(CCSc1ccccn1)c1nc2ccccc2s1` [2-(2-pyridin-2-ylsulfanylethylsulfonyl)-1,3-benzothiazole], `O=C(CSC1=NCCS1)Nc1ccnc2ccccc12` [2-(4,5-dihydro-1,3-thiazol-2-ylsulfanyl)-N-quinolin-4-yl-ethanamide] is 3.9-fold lower in EC50: 9.83 µM for the first, 2.55 µM for the second.

Compared with `Cc1[nH]nc2c1C1(C(=O)N(Cc3ccc(Cl)cc3)c3ccccc31)C(C#N)C(=N)O2` (centres undefined) [6-amino-1'-[(4-chlorophenyl)methyl]-3-methyl-2'-oxo-5-spiro[2H-pyrano[2,3-c]pyrazole-4,3'-indole]carbonitrile], `Clc1ccc(OCc2nnc(SCc3nc4ccccc4[nH]3)n2Cc2ccco2)cc1` [2-[[[5-[(4-chlorophenoxy)methyl]-4-(2-furanylmethyl)-1,2,4-triazol-3-yl]thio]methyl]-1H-benzimidazole] is 4.7-fold lower in EC50: 43.6 µM for the first, 9.34 µM for the second. The second is the more potent here.

Compared with `Cc1noc(/C=C/N(C)C)c1S(=O)(=O)N1CCc2ccccc21` [(E)-2-[4-(2,3-dihydroindol-1-ylsulfonyl)-3-methyl-1,2-oxazol-5-yl]-N,N-dimethyl-ethenamine], `CC(Oc1ccccc1Br)C(=O)N1CCc2ccccc21` (centres undefined) [1-[2-(2-bromophenoxy)propanoyl]indoline] is lower in EC50: greater than 95 µM for the first, 7.23 µM for the second. The second is the more potent here.

First: COc1ccc(CCNc2c(C)c(C)nc3ncnn23)cc1 [(5,6-Dimethyl-[1,2,4]triazolo[1,5-a]pyrimidin-7-yl)-[2-(4-methoxy-phenyl)-ethyl]-amine]
Second: COc1ccc(CCNc2ncnc3c2oc2ccccc23)cc1OC [MLS000041708]
The EC50 of the first is 6.2-fold higher: 3.72 µM for the first, 0.601 µM for the second. The second is the more potent here.

Going from `COc1ccc(-n2nnnc2S(=O)(=O)CC(=O)N2CCCCC2)cc1` [2-[1-(4-methoxyphenyl)tetrazol-5-yl]sulfonyl-1-piperidin-1-ylethanone] to `N#CCCS(=O)(=O)c1nnnn1-c1ccccc1` [3-(1-phenyltetrazol-5-yl)sulfonylpropanenitrile], the EC50 falls from 9.83 µM to 3.55 µM (2.8-fold).

First: c1ccc(CSc2nnc(-c3c[nH]c4ccccc34)o2)cc1
Second: CN(C)CC(C(=O)c1ccccc1)c1ccccc1 (centres undefined) [3-(dimethylamino)-1,2-diphenyl-1-propanone;hydrochloride]
The EC50 of the first is 7.5-fold lower: 1.59 µM for the first, 12 µM for the second.

First: Clc1ccc(OCc2nc(-c3ccncc3)no2)c(Br)c1 [5-[(2-bromanyl-4-chloranyl-phenoxy)methyl]-3-pyridin-4-yl-1,2,4-oxadiazole]
Second: Clc1ccc(NCn2cncn2)nc1
The EC50 of the first is lower: 3.45 µM for the first, greater than 95 µM for the second.

`COC(=O)Cc1sc(=O)[nH]c1Nc1ccccc1` [MLS000111966] and `COC(=O)c1ccc(C(c2c(N)n(CC(C)C)c(=O)[nH]c2=O)N2CCN(c3ccccc3)CC2)cc1` (centres undefined) [4-[[6-amino-1-(2-methylpropyl)-2,4-dioxo-5-pyrimidinyl]-(4-phenyl-1-piperazinyl)methyl]benzoic acid methyl ester] cannot be ordered by EC50: greater than 95 µM for the first, greater than 95 µM for the second.

First: O=C(CCN1CCc2ccccc2CC1)c1ccc2c(c1)OCCO2 [1-(2,3-dihydro-1,4-benzodioxin-6-yl)-3-(1,2,4,5-tetrahydro-3-benzazepin-3-yl)-1-propanone;hydrochloride]
Second: O=C(Oc1cccc(C(=O)N2CCOCC2)c1)c1ccc(Br)cc1 [(3-morpholin-4-ylcarbonylphenyl) 4-bromanylbenzoate]
The EC50 of the first is lower: 12.4 µM for the first, greater than 95 µM for the second.

Compared with `Cc1cc(N2CCN(C/C=C/c3ccccc3)CC2)n2ncnc2n1` [5-Methyl-7-[4-((E)-3-phenyl-allyl)-piperazin-1-yl]-[1,2,4]triazolo[1,5-a]pyrimidine], `CCOc1ccc(-c2nc(CSCC(=O)N3CCN(c4cccc(OC)c4)CC3)c(C)o2)cc1` [1-[4-(3-methoxyphenyl)piperazino]-2-[(5-methyl-2-p-phenetyl-oxazol-4-yl)methylthio]ethanone] is lower in EC50: greater than 30 µM for the first, 7.42 µM for the second. The second is the more potent here.

Compared with `CCCc1cc(C(=O)N2CCN(C(c3ccccc3)c3ccccc3)CC2)no1` [(4-benzhydrylpiperazin-1-yl)-(5-propyl-1,2-oxazol-3-yl)methanone], `CCc1ccc2oc(-c3cc(N)cc(C)c3O)nc2c1` [(6E)-4-amino-6-(5-ethyl-3H-1,3-benzoxazol-2-ylidene)-2-methyl-1-cyclohexa-2,4-dienone] is 1.9-fold higher in EC50: 5.97 µM for the first, 11.6 µM for the second.

same assay, conditions: inactive by the depositor's call

In order of rising EC50:
1. C=CCOC(=O)c1[nH]c2c(c1C)C(=O)CC(c1cc(OC)c(OC)c(OC)c1)C2 (centres undefined) [SMR000093465]  11.1 µM
2. CCc1ccc(-c2nc(CSCC(=O)N3CCN(c4ccccn4)CC3)c(C)o2)cc1 [1-[({[2-(4-ethylphenyl)-5-methyl-1,3-oxazol-4-yl]methyl}thio)acetyl]-4-pyridin-2-ylpiperazine]  11.5 µM
3. Cc1ccc2nc(C(F)(F)F)c(C#N)c(N)c2c1 [4-amino-6-methyl-2-(trifluoromethyl)-3-quinolinecarbonitrile]  12 µM
4. Cc1cccc(-c2nc(CSCC(=O)N3CCN(c4ccccn4)CC3)c(C)o2)c1 [1-[({[5-methyl-2-(3-methylphenyl)-1,3-oxazol-4-yl]methyl}thio)acetyl]-4-pyridin-2-ylpiperazine]  12.2 µM
5. CCOC(=O)c1ccc(NC(=O)CCc2nc(-c3ccc(Cl)cc3)no2)cc1 [4-[3-[3-(4-chlorophenyl)-1,2,4-oxadiazol-5-yl]propanoylamino]benzoic acid ethyl ester]  13 µM
6. CC(C)OCCCNc1ncnc2c1[nH]c1ccccc12 [MLS000041327]  13.2 µM
7. CC(=O)N1CCCc2cc(S(=O)(=O)NCCC3=CCCCC3)ccc21 [1-acetyl-N-(2-cyclohex-1-en-1-ylethyl)-1,2,3,4-tetrahydroquinoline-6-sulfonamide]  13.4 µM
8. Nc1c(C(=O)NC2CCCC2)sc2nc(-c3cccs3)ccc12 [3-Amino-6-thiophen-2-yl-thieno[2,3-b]pyridine-2-carboxylic acid cyclopentylamide]  13.6 µM
9. Cn1nc(CC(=O)Nc2ccc(N3CCN(C(=O)OC(C)(C)C)CC3)cc2)c2ccccc2c1=O [4-[4-[[2-(3-methyl-4-oxo-1-phthalazinyl)-1-oxoethyl]amino]phenyl]-1-piperazinecarboxylic acid tert-butyl ester]  14.4 µM
10. Cn1cccc1C(=O)OCc1cc(Cl)cc2c1OCOC2 [(6-chloranyl-4H-1,3-benzodioxin-8-yl)methyl 1-methylpyrrole-2-carboxylate]  17.2 µM
11. Cc1cc(C(=O)COC(=O)c2csc3c2CCCC3)c(C)n1C [4,5,6,7-tetrahydro-1-benzothiophene-3-carboxylic acid [2-oxo-2-(1,2,5-trimethyl-3-pyrrolyl)ethyl] ester]  17.5 µM
12. COc1ccccc1-n1nnnc1SCc1cc2c(cc1Br)OCO2 [5-[(6-bromanyl-1,3-benzodioxol-5-yl)methylsulfanyl]-1-(2-methoxyphenyl)-1,2,3,4-tetrazole]  36.2 µM
13. COC(=O)c1ccc(CSc2nc3ccccc3c(=O)n2Cc2ccco2)o1 [5-[[[3-(2-furanylmethyl)-4-oxo-2-quinazolinyl]thio]methyl]-2-furancarboxylic acid methyl ester]  40.4 µM
14. O=C(c1cc(-c2ccccc2)on1)N1CCN(Cc2ccc3c(c2)OCO3)CC1 [(5-phenylisoxazol-3-yl)-(4-piperonylpiperazino)methanone]  58.7 µM
